# How the values were obtained:
# Cytotoxicity test = assay type: cell-based; details: human, TZM-bl cells
# Solubility in water = assay type: physicochemical
substance,measurement,setting,value
enfuvirtide,CC50,Cytotoxicity test,> 100 µM
same,aqueous solubility (in words),Solubility in water,negligible
